# Measured values reported in patent US12685725B2, “Pridopidine for the treatment of mitochondrial-associated diseases and disorders and endoplasmic reticulum (ER) stress” (PRILENIA NEUROTHERAPEUTICS LTD., priority 2019, dated 2026).
# Like-named read-outs stand apart in the source and are kept apart here.
# Columns and labels:
# [1] = system: WT and YAC128 cortical and striatal neurons; conditions: 24 h
# Experimental: (§1) Mitochondrial membrane potential (Δψm) was assessed in cortical and striatal neurons using the positively changed fluorescent probe TMRM (tetramethylrhodamine methyl ester) (Thermo Fisher Sci., catalog no: T668) and in cortical/striatal co-cultures and lymphoblasts using an equivalent probe, TMRE (tetramethylrhodamine ethyl ester) (Abcam, catalog no. ab113852).
# Under these conditions, retention of TMRM by mitochondria was studied to estimate changes in Δψm. […] TMRM release was calculated based in the differences in fluorescence before and after addition of oligomycin/FCCP.
# Y128 neurons = conditions: 5 μM given 24 h before 0.1 mM H2O2 for 6 h, p=0.001
# Experimental: as §1
# TMRE assay: Primary neurons and lymphoblasts in suspension were cultured in 6-well plates.
# [2] = system: S1R/BiP colocalization in NIH 3T3 cells
# Experimental: Colocalization of S1R and mitochondria was assessed in NIH 3T3 cells expressing WT myc-Htt20Q or mutant myc-Htt96Q. Cells were then fixed, permeabilized and reacted with mouse anti-myc and rabbit anti-S1R. Images were pseudo-colored to better visualize the colocalization of S1R and MitoTracker.
# (§2) Transfections of HEK 293 cells were carried out according to the calcium phosphate method. STHdh^Q7/7 cells are a murine striatal cell line with a stable knock-in of the full-length wild type (WT) human Htt containing a polyglutamine stretch of 7 glutamines (Trettel et al. 2000). […] No cell line used is listed as a commonly misidentified cell line. Cell lines were not authenticated. To reduce any risk of cross-contamination they were grown for a limited number of passages. Transient transfections of NIH 3T3 and STHdh^Q7/7 cells were performed using an MP-100 Microporator (Digital Bio) or ViaFect™ Transfection Reagent (Cat.No. E4981) (Promega), according to the manufacturer's protocols.
# (§3) Briefly, cells grown for 24 h after transfection on coverslips in 24-well plates were fixed with 3% paraformaldehyde, followed by blocking with 50 mM glycine in PBS and normal goat IgG in PBS/2% BSA. The cells were incubated with primary antibodies for 1 h, washed and incubated for 30 min with secondary antibodies, followed by washes. Nuclei were stained with 4′,6-diamidino-2-phenylindole (Cat.No. F6057) (Sigma). Confocal microscopy was done on a Zeiss laser scanning confocal microscope (LSM 510; Carl Zeiss, Jena, Germany) as described previously. ImageJ was used to quantify fluorescence intensity in images of treated individual cells compared to untreated cells with and without Htt96Q-mCherry aggregates and to calculate Mander's coefficients for colocalization studies.
# S1R in STHdh^Q7/7 cells = system: S1R in STHdh^Q7/7 cells
# Experimental: as §2
# Cells were lysed in PBS containing 1% Triton X-100, 0.5% sodium deoxycholate with protease inhibitors and centrifuged to pellet insoluble aggregates, debris and nuclei. Phosphatase inhibitor cocktail 2 and 3 and 10 mM […] phosphate were added to the lysis buffer to inhibit phosphatases for detection of phosphorylated proteins. Supernatants were separated from pellets and incubated in loading buffer for 5 min at 100° C., pellets were incubated for 10 min at 100° C. After SDS-PAGE and transfer to nitrocellulose membrane, blocking was done in 5% low-fat milk and 0.1% Tween-20 in PBS for 1 h. Incubation with the primary antibody was overnight at 4° C. and after three washes in 0.1% Tween-20 in PBS, incubation with the appropriate secondary antibody was for 1 h at room temperature. After washing, enhanced chemiluminescence assay was performed and the membrane was exposed and quantified in a Bio-Rad ChemiDocXRS Imaging System (Bio-Rad, Hercules, CA).
# as §3
# HD-NSCs = assay: cells; conditions: Homo sapiens, 24 h, read-out: reduction of the increase in H2O2 levels induced by complex III inhibition
# Experimental: NSCs were plated at 30,000 cells/well in 96-well assay plates coated with Geltex® for 24 h at 37° C. Afterwards, NSCs were incubated for another 24 h with 1 μM pridopidine. […] MitoPY1 fluorescence was obtained with a Microplate Spectrofluorometer Gemini EM (Molecular Devices, USA) using wavelength parameters described above. Basal levels were measured for 10-15 minutes followed by exposure to 3 μM myxothiazol (mitochondrial complex III inhibitor. Sigma-Aldrich, catalog no: T5580) and measured for an additional 30 minutes. The results were calculated as RFU per 30,000 cells.
# [3] = system: HD-iPSC-derived neural stem cells (HD-NSCs)
# Experimental: Neural induction occurred between day 0 and days 12-15. From day 0 to day 5, cells were maintained in iPSC medium without FGF2 and incubated with 5 μM dorsomorphin and 10 μM SB431542. Medium was changed every other day. […] Between days 12 and 15, fields full of rosettes became morphologically visible. To allow the cells to differentiate, cells were replated in Geltrex® coated 12-well plates. For detaching, 500 μl of 1×Accutase® (Thermo Fisher Sci., catalog no: A1110501) was added to the plate and incubated at 37° C. in 5% CO2, for 15-20 min. Accutase was diluted in DMEM/F12 medium pre-warmed to 37° C. Cells were collected and spun for 3 min at 200×g at room temperature, and resuspended in 200 μl of media into 12-well plates. […] Cells were incubated overnight at 37° C., 5% CO2. Cells were passaged every 2-3 days for no more than 10-12 passages.
# Oxygen consumption rate (OCR) in WT and hemizygous YAC128 cortical/striatal co-cultures and NSCs was measured using Seahorse XFe-24/96 flux analyzers (Seahorse Bioscience, Billerica, MA, USA) following the manufacturer's instructions. […] Pridopidine (0.1, 1 and/or 5 μM) was added, when indicated in the graphs, 24 h before the experiment. The sensor cartridge plate was incubated with immersed sensors in a non-CO2 incubator at 37° C. for ~16 h (overnight). […] The cell medium was aspirated gently to avoid disturbing cell monolayers. […] Accordingly, mitochondrial basal respiration, maximal respiration and ATP production was automatically calculated and recorded by the Seahorse software. Data was normalized for protein levels.
# [4] = system: isolated YAC128 striatal mitochondria; conditions: wild-type mice, 30 mg/kg/day oral gavage 45 days
# Experimental: In isolated mitochondria, H2O2 levels were measured using the Amplex Red-horseradish peroxidase method. […] The homogenate was then dispensed into a 96-multiwell plate and fluorescence was measured in a spectrofluorometer microplate reader by excitation at 570 nm and emission at 585 nm every 30 s, for 20 min. After 10 min of basal reading, mitochondria were challenged with antimycin A (2 μM). Results were analyzed as time-dependent changes in fluorescence.
# 1.5-month-old WT and hemizygous YAC128 mice (males and females in equal proportion) were divided into four groups. […] Mice were divided 4 animals per cage enriched in corn-husk nesting material and paper rolls, each cage representing one individual experiment, for a total of 9 animals per group. Pridopidine was dissolved in deionized sterile water. Animals were weighed every week and the volume of treatment adjusted accordingly. Mice were behaviorally tested in rotarod immediately before commencing treatment and on the day before finishing treatment. Tests were conducted blindly at a set time during the day. Mice were sacrificed 24 h after administration of the final pridopidine dose, and mitochondria isolated from the striatum.
# The final homogenate was then centrifuged at 1,100×g for 2 min, at 4° C. […] Protein content of isolated mitochondria was quantified by Bio-Rad assay (Bio-Rad, catalog no. 5000006).
structure (smiles),measurement,setting,value
"CCCN1CCC(c2cccc(S(C)(=O)=O)c2)CC1 [Pridopidine, 4-[3-(methylsulfonyl)phenyl]-1-propyl-piperidine]","mitochondrial membrane potential (MMP), TMRM release","[1]; WT striatal neurons, 1 μM, p=0.0013",also increases MMP
same,"mitochondrial membrane potential (MMP), TMRM release","[1]; Y128 high mHTT, cortical neurons, 0.1 μM, p=0.015",significantly increases MMP
same,"mitochondrial membrane potential (MMP), TMRM release","[1]; Y128 high mHTT, cortical neurons, 1 μM, p=0.0201",significantly increases MMP
same,"mitochondrial membrane potential (MMP), TMRM release","[1]; Y128 high mHTT, striatal neurons, 0.1 μM, p=0.0407",significantly increases MMP
same,"mitochondrial membrane potential (MMP), TMRM release","[1]; Y128 high mHTT, striatal neurons, 1 μM, p=0.0017",significantly increases MMP
same,"mitochondrial membrane potential (MMP), TMRM release","[1]; Y128 low mHTT, cortical neurons, 0.1 μM, p=0.0008",significantly increases MMP
same,"mitochondrial membrane potential (MMP), TMRM release","[1]; Y128 low mHTT, cortical neurons, 1 μM, p=0.0303",significantly increases MMP
same,"mitochondrial membrane potential (MMP), TMRM release","[1]; Y128 low mHTT, striatal neurons, 0.1 μM, p=0.0274",significantly increases MMP
same,H2O2-induced loss of MMP (TMRE),Y128 neurons,completely reverts this H2O2-induced loss of MMP
same,S1R/BiP colocalization,[2]; cells expressing Htt20Q,does not affect S1R/BiP colocalization
same,S1R/BiP colocalization (BiP-RFP),"[2]; cells expressing Htt96Q aggregates, 150 μM","restores S1R/BiP colocalization in cells expressing Htt96Q aggregates to normal, unstressed levels"
same,colocalization of S1R and BiP-GFP,"[2]; cells expressing myc-Htt96Q, 150 μM",shows a trend towards increasing colocalization
same,Triton-insoluble levels of S1R-YFP,"S1R in STHdh^Q7/7 cells; 20 h, starting 4 h post-transfection",increases the Triton-insoluble levels of S1R-YFP
same,increase of S1R-YFP levels above the levels in the untreated cells,"S1R in STHdh^Q7/7 cells; in the presence of Htt96Q-mCherry, dose-dependent, up to 150 μM, 20 h",up to 47%
same,pattern (subcellular localization) of S1R-YFP,S1R in STHdh^Q7/7 cells; treatment for 20 h,does not change the pattern of S1R-YFP
same,inhibition at 1 µM,HD-NSCs,~42%
same,ATP production,[3],shows a trend towards increasing ATP production
same,maximal respiration,[3],also increases
same,mitochondrial basal respiration,[3],also increases mitochondrial basal
same,mitochondrial H2O2 levels,[4],does not affect
